{
  "source": "patent US20100234417A1",
  "about": "“THYROTROPIN RELEASING HORMONE RECEPTOR-OREXIN RECEPTOR HETERO-DIMERS/-OLIGOMERS” (DIMERIX BIOSCIENCE PTY LTD., priority 2006, published 2010)",
  "key": {"[1]": {"target": "T1, thyrotropin releasing hormone receptor (TRHR) (Rattus norvegicus, UniProt Q01717)", "T1 construct": "expressed in transfected cells; host or cells: HEK293 (HEK293FT)", "T1 sequence (Q01717 1-412)": "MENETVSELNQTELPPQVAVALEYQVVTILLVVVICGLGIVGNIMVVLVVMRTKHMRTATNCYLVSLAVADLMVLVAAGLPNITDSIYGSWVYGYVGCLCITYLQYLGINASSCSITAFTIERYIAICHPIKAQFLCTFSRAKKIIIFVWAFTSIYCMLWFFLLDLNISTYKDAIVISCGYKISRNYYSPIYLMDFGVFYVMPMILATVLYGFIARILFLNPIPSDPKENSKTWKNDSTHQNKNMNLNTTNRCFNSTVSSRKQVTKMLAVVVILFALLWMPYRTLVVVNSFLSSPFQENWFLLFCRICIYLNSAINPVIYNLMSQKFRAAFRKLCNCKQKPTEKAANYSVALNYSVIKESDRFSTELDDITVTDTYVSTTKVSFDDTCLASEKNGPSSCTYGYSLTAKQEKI", "assay": "eBRET/BRET beta-arrestin recruitment to TRHR/Rluc without IG3 (pcDNA3) in HEK293 cells", "format": "cell-based", "source_text": "Briefly, referring to FIGS. 1 to 3, the IGs are provided in the form of the two receptors (TRHR and OxR). One of the two is attached to an RC (IG1-RC1, IG3). A second IG (IG2-RC2) is derived from a molecule that interacts with the receptors upon ligand binding (e.g. beta-arrestin, or a mutant thereof). The detection system not only detects the formation of the TRHR-OxR heterodimer but can distinguish whether a ligand or drug acts as an agonist, partial agonist, antagonist, inverse agonist or partial inverse agonist at the receptor hetero-dimer.\nCells were seeded in 6-well plates at a density of approximately 630,000 cells/well (HEK293FT) or approximately 150,000 cells/well (COS-7) and maintained at 37° C., 5% CO2 in Complete Media (DMEM containing 0.3 mg/ml glutamine, 100 IU/ml penicillin and 100 μg/ml streptomycin (Gibco)) supplemented with 10% fetal calf serum (FCS; Gibco). Transient transfections were carried out 24 h after seeding using GeneJuice (Novagen) or Metafectene (Biontex) according to manufacturer instructions. 24 h post-transfection, cells were washed with PBS, detached using 0.05% trypsin/0.53 mM EDTA, resuspended in HEPES-buffered phenol red free Complete Media containing 5% FCS and added to a poly-L-lysine-coated white microplate (Nunc). 48 h post-transfection, eBRET assays were carried out following pre-incubation of cells with EnduRen™ (Promega) at a final concentration of 30-40 μM, at 37° C., 5% CO2 for 2 h. For original BRET studies, the HEPES-buffered phenol red free Complete Media was replaced with PBS and coelenterazine h (Molecular Probes) added to a final concentration of 5 μM immediately prior to commencing the assay. BRET measurements were taken at 37° C. using the Victor Light plate reader with Wallac 1420 software (Perkin-Elmer). Filtered light emissions were sequentially measured for 3-5 s in each of the ‘donor wavelength window’ (400-475 nm) and ‘acceptor wavelength window’ (>500 nm for EGFP or 520-540 nm for EYFP, Topaz (TYFP) or Venus). The BRET signal observed between interacting proteins is normalized by subtracting the background BRET ratio. This can be done in one of two ways (see Pfleger et al. (2006) Cell Signal 18, 1664-1670; Pfleger et al. (2006) Nat Protoc 1, 336-344): 1) the ratio of light emission through the acceptor wavelength window over the 400-475 nm emission for a cell sample containing only the donor construct is subtracted from the same ratio for a sample containing the interacting acceptor and donor fusion proteins; 2) the ratio of light emission through the ‘acceptor wavelength window’ over the 400-475 nm emission for a cell sample treated with vehicle is subtracted from the same ratio for a second aliquot of the same cell sample treated with ligand. In the following examples, the first calculation will be used, unless the signal is described as the ‘ligand-induced BRET ratio’. Alternatively, and particularly when illustrating z-factor data (Zhang et al. (1999) J Biomol Screen 4, 67-73), the BRET signal observed between interacting proteins can be shown in conjunction with (as oppose to being subtracted by) the background BRET ratio to evaluate error associated with the BRET signal observed between interacting proteins and the error associated with the background BRET ratio independently. In this case, data are shown as ‘fluorescence/luminescence’ being the ratio of light emission through the ‘acceptor wavelength window’ over the 400-475 nm emission for a particular cell sample. Unless otherwise stated, BRET signals were measured in 96-well microplates.\nReferring now to FIG. 4, eBRET signals were measured from cells transiently co-expressing TRHR/Rluc and barr2/Venus with either pcDNA3, OxR2, CXCR2, HA-MC3R, HA-MC4R, D2LR or D2SR following the treatment of each with their respective ligands.\nReferring now to FIG. 5, eBRET signals were measured from cells transiently co-expressing TRHR/Rluc and EGFP/barr1 or EGFP/barr2 with either pcDNA3 or OXR2. […]"}, "TRHR335 with OxR2": {"tested_on": "TRHR335 with OxR2", "assay": "eBRET/BRET: truncated TRHR335/Rluc + tagged beta-arrestin + OxR2 as IG3", "format": "cell-based", "description": "Cells were seeded in 6-well plates at a density of approximately 630,000 cells/well (HEK293FT) or approximately 150,000 cells/well (COS-7) and maintained at 37° C., 5% CO2 in Complete Media (DMEM containing 0.3 mg/ml glutamine, 100 IU/ml penicillin and 100 μg/ml streptomycin (Gibco)) supplemented with 10% fetal calf serum (FCS; Gibco). Transient transfections were carried out 24 h after seeding using GeneJuice (Novagen) or Metafectene (Biontex) according to manufacturer instructions. 24 h post-transfection, cells were washed with PBS, detached using 0.05% trypsin/0.53 mM EDTA, resuspended in HEPES-buffered phenol red free Complete Media containing 5% FCS and added to a poly-L-lysine-coated white microplate (Nunc). 48 h post-transfection, eBRET assays were carried out following pre-incubation of cells with EnduRen™ (Promega) at a final concentration of 30-40 μM, at 37° C., 5% CO2 for 2 h. For original BRET studies, the HEPES-buffered phenol red free Complete Media was replaced with PBS and coelenterazine h (Molecular Probes) added to a final concentration of 5 μM immediately prior to commencing the assay. […] Filtered light emissions were sequentially measured for 3-5 s in each of the ‘donor wavelength window’ (400-475 nm) and ‘acceptor wavelength window’ (>500 nm for EGFP or 520-540 nm for EYFP, Topaz (TYFP) or Venus). The BRET signal observed between interacting proteins is normalized by subtracting the background BRET ratio. […] In the following examples, the first calculation will be used, unless the signal is described as the ‘ligand-induced BRET ratio’. […] In this case, data are shown as ‘fluorescence/luminescence’ being the ratio of light emission through the ‘acceptor wavelength window’ over the 400-475 nm emission for a particular cell sample. Unless otherwise stated, BRET signals were measured in 96-well microplates.\nReferring now to FIG. 9, eBRET signals were measured from cells transiently co-expressing TRHR335/Rluc and EGFP/barr1 with either OxR2 or TRHR."}, "[2]": {"details": "TRHR/Rluc only (no OxR2) + EGFP/barr1 or EGFP/barr2, FIG. 5"}, "[3]": {"details": "TRHR335/Rluc + EGFP/barr1 + OxR2, FIG. 9"}},
  "note": "Ends that are not written are not given here.",
  "data": [
    {"compound": "NC(=O)[C@@H]1CCCN1C(=O)[C@H](Cc1cnc[nH]1)NC(=O)[C@@H]1CCC(=O)N1", "note": "[TRH, pGlu-His-Pro-NH2]", "values": [
      {"measurement": "eBRET signal peak", "setting": "[1]; HEK293, TRHR/Rluc + barr2/Venus + pcDNA3, ligand 10^−6M, 37 C, FIG. 4", "value": "greater than 0.17"},
      {"measurement": "time to eBRET signal peak", "setting": "[1]; HEK293, TRHR/Rluc + barr2/Venus + pcDNA3, ligand 10^−6M, FIG. 4", "value": "Within the first minute"},
      {"measurement": "dose-response Hill slope", "setting": "[1]; TRHR/Rluc + barr2/Venus + pcDNA3, FIG. 10", "value": "approximately 1"},
      {"measurement": "eBRET signal", "setting": "[1]; TRHR/Rluc only (no HA-OxR2), FIG. 7", "value": "rapid increase in eBRET signal reaching a peak in the first few minutes"},
      {"measurement": "eBRET signal", "setting": "[1]; TRHR/Rluc only (no OxR2) + EGFP/barr1 or EGFP/barr1R169E, FIG. 8", "value": "rapid increase in eBRET signal reaching a peak in the first few minutes"},
      {"measurement": "eBRET signal", "setting": "[1]; [2]", "value": "rapid stimulation of the eBRET signal"},
      {"measurement": "eBRET signal with EGFP/barr1R169E relative to EGFP/barr1", "setting": "[1]; TRHR/Rluc only (no OxR2), FIG. 8", "value": "lower than that for EGFP/barr1"},
      {"measurement": "eBRET signal", "setting": "TRHR335 with OxR2; [3]", "value": "no eBRET signal above baseline"},
      {"measurement": "BRET signal (dose response)", "setting": "TRHR335 with OxR2; TRHR335/Rluc + barr2/Venus + OxR2, FIG. 15", "value": "does not result in a BRET signal"}
    ]},
    {"compound": "OxA: orexin A; known orexin receptor modulator, used as IG3 ligand (modulator) (QPLPDCCRQKTCSCRLYELLHGAGNHAAGILTL; ends and bridges not checked; cysteine pairing not given here; UniProt O43612 34-66, looked up)", "values": [
      {"measurement": "eBRET signal", "setting": "[1]; OxA added to cells lacking HA-OxR2, FIG. 7", "value": "No increase in eBRET signal above baseline"},
      {"measurement": "cumulative eBRET signal", "setting": "[1]; TRHR/Rluc + EGFP/barr1, 0 μg OxR2 DNA/well, 10^−6M OxA, 83 mins, FIG. 16", "value": "no signal was recorded"},
      {"measurement": "effect of OxA on TRH-induced eBRET signal", "setting": "[1]; [2]", "value": "no difference"},
      {"measurement": "time for eBRET signal to reach plateau", "setting": "TRHR335 with OxR2; [3]", "value": "about 20 minutes"}
    ]}
  ]
}
